Source: patent publication US11702411B2, “Pyridine, pyrazine, and triazine compounds as allosteric SHP2 inhibitors” (Revolution Medicines, Inc., priority 2017, dated 2023)

These molecules were tested against SHP2 (Homo sapiens (Human), UniProt Q06124) (assay: SHP2 allosteric inhibition assay (DiFMUP prompt fluorescence, activating peptide)). Settings: 0.2 nM SHP2, 0.5 μM activating peptide, DiFMUP substrate; read-out: SHP2 Allosteric IC50.
Type: biochemical
From the text: Without wishing to be bound by theory, SHP is allosterically activated through binding of bis-tyrosyl-phosphorylated peptides to its Src Homology 2 (SH2) domains. The latter activation step leads to the release of the auto-inhibitory interface of SHP2, which in turn renders the SHP2 protein tyrosine phosphatase (PTP) active and available for substrate recognition and reaction catalysis. The catalytic activity of SHP2 was monitored using the surrogate substrate DiFMUP in a prompt fluorescence assay format.
The phosphatase reactions were performed at room temperature in 96-well black polystyrene plate, flat bottom, non-binding surface (Corning, Cat #3650) using a final reaction volume of 100 μL and the following assay buffer conditions: 50 mM HEPES, pH 7.2, 100 mM NaCl, 0.5 mM EDTA, 0.05% P-20, 1 mM DTT.
The inhibition of SHP2 by compounds of the present disclosure (concentrations varying from 0.00005-10 μM) was monitored using an assay in which 0.2 nM of SHP2 was incubated with 0.5 μM of Activating Peptide 1 (sequence: H2N-LN(pY)IDLDLV(dPEG8)LST(pY)ASINFQK-amide) or Activating Peptide 2 (sequence: H2N-LN(pY)AQLWHA(dPEG8)LTI(pY)ATIRRF-amide). After 30-60-minutes incubation at 25° C., the surrogate substrate DiFMUP (Invitrogen, Cat #D6567) was added to the reaction and activity was determined by a kinetic read using a microplate reader (Envision, Perkin-Elmer or Spectramax M5, Molecular Devices). The excitation and emission wavelengths were 340 nm and 450 nm, respectively. Initial rates were determined from a linear fit of the data, and the inhibitor dose response curves were analyzed using normalized IC50 regression curve fitting with control based normalization.

Compound	IC50
COc1nccc(Sc2cnc(N3CCC4(CC3)CO[C@@H](C)[C@H]4N)c(CO)n2)c1Cl [Compound 24, {3-[(3S,4S)-4-amino-3-methyl-2-oxa-8-azaspiro[4.5]decan-8-yl]-6-[(3-chloro-2-methoxypyridin-4-yl)sulfanyl]pyrazin-2-yl}methanol]	≤ 0.05 µM
N[C@@H]1CCCC12CCN(c1ncc(-c3ccnc(Cl)c3Cl)nc1CO)CC2 [Compound 1, (3-[(1R)-1-amino-8-azaspiro[4.5]decan-8-yl]-6-(2,3-dichloropyridin-4-yl)pyrazin-2-yl)methanol]	0.05 to 0.5 µM
COc1ccc(Cl)c(Cl)c1-c1cnc(N2CCC3(CC2)CO[C@@H](C)[C@H]3N)c(CO)n1 [Compound 7, {3-[(3S,4S)-4-amino-3-methyl-2-oxa-8-azaspiro[4.5]decan-8-yl]-6-(2,3-dichloro-6-methoxyphenyl)pyrazin-2-yl}methanol]	> 0.5 µM
COc1ccc(F)c(-c2cnc(N3CCC4(CC3)CO[C@@H](C)[C@H]4N)c(CO)n2)c1Cl [Compound 17, {3-[(3S,4S)-4-amino-3-methyl-2-oxa-8-azaspiro[4.5]decan-8-yl]-6-(2-chloro-6-fluoro-3-methoxyphenyl)pyrazin-2-yl}methanol]	> 0.5 µM
C[C@@H]1OCC2(CCN(c3ncc(-c4ccc5nccnc5c4Cl)nc3CO)CC2)[C@@H]1N [Compound 9, {3-[(3S,4S)-4-amino-3-methyl-2-oxa-8-azaspiro[4.5]decan-8-yl]-6-(5-chloroquinoxalin-6-yl)pyrazin-2-yl}methanol]	0.05 to 0.5 µM
C[C@@H]1OCC2(CCN(c3ncc(-c4c(Cl)ccc(Cl)c4Cl)nc3CO)CC2)[C@@H]1N [Compound 18, {3-[(3S,4S)-4-amino-3-methyl-2-oxa-8-azaspiro[4.5]decan-8-yl]-6-(2,3,6-trichlorophenyl)pyrazin-2-yl}methanol]	0.05 to 0.5 µM
C[C@@H]1OCC2(CCN(c3ncc(-c4cccc5cc[nH]c45)nc3CO)CC2)[C@@H]1N [Compound 11, {3-[(3S,4S)-4-amino-3-methyl-2-oxa-8-azaspiro[4.5]decan-8-yl]-6-(1H-indol-7-yl)pyrazin-2-yl}methanol]	≤ 0.05 µM
COc1cccc(Sc2cnc(N3CCC4(CC3)CO[C@@H](C)[C@H]4N)c(CO)n2)c1Cl [Compound 25, {3-[(3S,4S)-4-amino-3-methyl-2-oxa-8-azaspiro[4.5]decan-8-yl]-6-[(2-chloro-3-methoxyphenyl)sulfanyl]pyrazin-2-yl}methanol]	≤ 0.05 µM
CC1(N)CCN(c2ncc(-c3cccc(Cl)c3Cl)nc2CO)CC1 [Compound 3, [3-(4-amino-4-methylpiperidin-1-yl)-6-(2,3-dichlorophenyl)pyrazin-2-yl]methanol]	0.05 to 0.5 µM
CC1(N)CCN(c2ncc(Sc3ccnc(N)c3Cl)nc2CO)CC1 [Compound 4, (6-((2-amino-3-chloropyridin-4-yl)thio)-3-(4-amino-4-methylpiperidin-1-yl)pyrazin-2-yl)methanol]	≤ 0.05 µM
C[C@@H]1OCC2(CCN(c3ncc(-c4c(O)ccc(Cl)c4Cl)nc3CO)CC2)[C@@H]1N [Compound 8, 2-{5-[(3S,4S)-4-amino-3-methyl-2-oxa-8-azaspiro[4.5]decan-8-yl]-6-(hydroxymethyl)pyrazin-2-yl}-3,4-dichlorophenol]	0.05 to 0.5 µM
C[C@@H]1OCC2(CCN(c3ncc(Sc4cccc(C#N)c4Cl)nc3CO)CC2)[C@@H]1N [Compound 22, 3-({5-[(3S,4S)-4-amino-3-methyl-2-oxa-8-azaspiro[4.5]decan-8-yl]-6-(hydroxymethyl)pyrazin-2-yl}sulfanyl)-2-chlorobenzonitrile]	≤ 0.05 µM
C[C@@H]1OCC2(CCN(c3ncc(Sc4ccnc(C#N)c4Cl)nc3CO)CC2)[C@@H]1N [Compound 23, 4-({5-[(3S,4S)-4-amino-3-methyl-2-oxa-8-azaspiro[4.5]decan-8-yl]-6-(hydroxymethyl)pyrazin-2-yl}sulfanyl)-3-chloropyridine-2-carbonitrile]	≤ 0.05 µM
C[C@@H]1OCC2(CCN(c3ncc(-c4c(Cl)c(Cl)cc5c4OCO5)nc3CO)CC2)[C@@H]1N [Compound 6, {3-[(3S,4S)-4-amino-3-methyl-2-oxa-8-azaspiro[4.5]decan-8-yl]-6-(5,6-dichloro-2H-1,3-benzodioxol-4-yl)pyrazin-2-yl}methanol]	0.05 to 0.5 µM
C[C@@H]1OCC2(CCN(c3ncc(-c4cc5ccccc5n4C)nc3CO)CC2)[C@@H]1N [Compound 15, {3-[(3S,4S)-4-amino-3-methyl-2-oxa-8-azaspiro[4.5]decan-8-yl]-6-(1-methyl-1H-indol-2-yl)pyrazin-2-yl}methanol]	≤ 0.05 µM
C[C@@H]1OCC2(CCN(c3ncc(-c4cc(Cl)c5cn[nH]c5c4)nc3CO)CC2)[C@@H]1N [Compound 13, {3-[(3S,4S)-4-amino-3-methyl-2-oxa-8-azaspiro[4.5]decan-8-yl]-6-(4-chloro-2H-indazol-6-yl)pyrazin-2-yl}methanol]	0.05 to 0.5 µM
C[C@@H]1OCC2(CCN(c3ncc(-c4ccc5nccnc5c4)nc3CO)CC2)[C@@H]1N [Compound 12, {3-[(3S,4S)-4-amino-3-methyl-2-oxa-8-azaspiro[4.5]decan-8-yl]-6-(quinoxalin-6-yl)pyrazin-2-yl}methanol]	> 0.5 µM
C[C@@H]1OCC2(CCN(c3ncc(-c4ccc5[nH]ncc5c4)nc3CO)CC2)[C@@H]1N [Compound 20, {3-[(3S,4S)-4-amino-3-methyl-2-oxa-8-azaspiro[4.5]decan-8-yl]-6-(2H-indazol-5-yl)pyrazin-2-yl}methanol]	0.05 to 0.5 µM
C[C@@H]1OCC2(CCN(c3ncc(-c4ccc5c(c4Cl)OCCC5)nc3CO)CC2)[C@@H]1N [Compound 16, {3-[(3S,4S)-4-amino-3-methyl-2-oxa-8-azaspiro[4.5]decan-8-yl]-6-(8-chloro-3,4-dihydro-2H-1-benzopyran-7-yl)pyrazin-2-yl}methanol]	0.05 to 0.5 µM

More lines, now with the values ahead:

IC50	Compound
≤ 0.05 µM	C[C@@H]1OCC2(CCN(c3ncc(Sc4cccc(Cl)c4Cl)nc3CO)CC2)[C@@H]1N [Compound 30, {3-[(3S,4S)-4-amino-3-methyl-2-oxa-8-azaspiro[4.5]decan-8-yl]-6-[(2,3-dichlorophenyl)sulfanyl]pyrazin-2-yl}methanol]
0.05 to 0.5 µM	N[C@@H]1CCCC12CCN(c1ncc(-c3cccc(Cl)c3Cl)nc1C(F)F)CC2 [Compound 34, (1R)-8-[5-(2,3-dichlorophenyl)-3-(difluoromethyl)pyrazin-2-yl]-8-azaspiro[4.5]decan-1-amine]
≤ 0.05 µM	C[C@@H]1OCC2(CCN(c3ncc(Sc4ccnc(N5CC(S(C)(=O)=O)C5)c4Cl)nc3CO)CC2)[C@@H]1N [Compound 26, {3-[(3S,4S)-4-amino-3-methyl-2-oxa-8-azaspiro[4.5]decan-8-yl]-6-{[3-chloro-2-(3-methanesulfonylazetidin-1-yl)pyridin-4-yl]sulfanyl}pyrazin-2-yl}methanol]
0.05 to 0.5 µM	C[C@@H]1OCC2(CCN(c3ncc(-c4cccc(Cl)c4Cl)nc3C(F)F)CC2)[C@@H]1N [Compound 35, (3S,4S)-8-[5-(2,3-dichlorophenyl)-3-(difluoromethyl)pyrazin-2-yl]-3-methyl-2-oxa-8-azaspiro[4.5]decan-4-amine]
≤ 0.05 µM	C[C@@H]1OCC2(CCN(c3ncc(Sc4cccc(C(=O)N(C)C)c4Cl)nc3CO)CC2)[C@@H]1N [Compound 28, 3-({5-[(3S,4S)-4-amino-3-methyl-2-oxa-8-azaspiro[4.5]decan-8-yl]-6-(hydroxymethyl)pyrazin-2-yl}sulfanyl)-2-chloro-N,N-dimethylbenzamide]
≤ 0.05 µM	C[C@@H]1OCC2(CCN(c3ncc(Sc4ccnc(NC5CCOCC5)c4Cl)nc3CO)CC2)[C@@H]1N [Compound 27, {3-[(3S,4S)-4-amino-3-methyl-2-oxa-8-azaspiro[4.5]decan-8-yl]-6-({3-chloro-2-[(oxan-4-yl)amino]pyridin-4-yl}sulfanyl)pyrazin-2-yl}methanol]
≤ 0.05 µM	C[C@@H]1OCC2(CCN(c3ncc(Sc4cc(N)ncc4Cl)nc3CO)CC2)[C@@H]1N [Compound 32, {3-[(3S,4S)-4-amino-3-methyl-2-oxa-8-azaspiro[4.5]decan-8-yl]-6-[(2-amino-5-chloropyridin-4-yl)sulfanyl]pyrazin-2-yl}methanol]
≤ 0.05 µM	C[C@@H]1OCC2(CCN(c3ncc(Sc4ccnc(N)c4Cl)nc3CO)CC2)[C@@H]1N [Compound 31, {6-[(2-amino-3-chloropyridin-4-yl)sulfanyl]-3-[(3S,4S)-4-amino-3-methyl-2-oxa-8-azaspiro[4.5]decan-8-yl]pyrazin-2-yl}methanol]
≤ 0.05 µM	C[C@@H]1OCC2(CCN(c3ncc(Sc4ccnc(N5CC(O)C5)c4Cl)nc3CO)CC2)[C@@H]1N [Compound 29, 1-[4-({5-[(3S,4S)-4-amino-3-methyl-2-oxa-8-azaspiro[4.5]decan-8-yl]-6-(hydroxymethyl)pyrazin-2-yl}sulfanyl)-3-chloropyridin-2-yl]azetidin-3-ol]

Same assay, conditions: 0.2 nM SHP2, 0.5 μM activating peptide, DiFMUP substrate; read-out: SHP2 IC50

IC50	Compound
0.145 µM	N[C@@H]1CCCC12CCN(c1ncc(-c3ccnc(Cl)c3Cl)nc1CO)CC2 [Compound 1, (3-[(1R)-1-amino-8-azaspiro[4.5]decan-8-yl]-6-(2,3-dichloropyridin-4-yl)pyrazin-2-yl)methanol]
0.461 µM	CC1(N)CCN(c2ncc(-c3cccc(Cl)c3Cl)nc2CO)CC1 [Compound 3, [3-(4-amino-4-methylpiperidin-1-yl)-6-(2,3-dichlorophenyl)pyrazin-2-yl]methanol]
